Measurements: US20080095810A1, “Nanoparticles Of Chitosan And Polyethyleneglycol As A System For The Administration Of Biologically-Active Molecules” (Advanced In Vitro Cell Technologies, S.L., priority 2005, published 2008)

Legend:
[1] = system: diabetic rats; assay: glycemic response to an oral glucose administration after intranasal insulin formulations; type: in vivo; conditions: 10 U/kg insulin intranasal, compared with acetate buffer
Method: Diabetic rats which had fasted overnight were used to carry out this experiment. Each of the preparations described in Example 7 was nasally administered to them. After one hour, each group of rats received an oral glucose administration of 2 g per each kg of body mass. The blood sugar was measured in blood from samples collected from the tail vein before the glucose administration and after 10, 20, 30, 60, 90 and 120 minutes.

[2] = system: streptozotocin diabetic male Wistar rats; assay: blood sugar after intranasal administration of insulin formulations in diabetic rats; type: in vivo; conditions: 10 U/kg insulin intranasal, compared with acetate buffer or with chitosan-PEG nanoparticles
Method: To encapsulate insulin in the chitosan nanoparticles, 2.4 mg of insulin were previously dissolved in an NaOH solution to which 1.2 mL of TPP were later added. This mixture was later added to 3 mL of chitosan. After 5 min with magnetic stirring, the preparation was centrifuged at 10,000 g for 40 min. The supernatant was removed and the precipitate was dissolved in a buffer. For its part, the same process was carried out to prepare the chitosan-PEG nanoparticles, but adding 10 mg/mL of PEG 400 to 2 mg/mL of chitosan.
The rats were considered diabetic when the blood sugar concentration was greater than 400 mg/dl after three weeks of the treatment with streptozotocin.
Fasting rats were used to carry out this experiment. They were divided into different groups depending on the formulation which was to be administered to them. […]
To determine the blood glucose levels, blood samples were collected from the tail vein before the nasal administration and every quarter of an hour until 90 minutes were completed. […] The blood glucose level was immediately determined using a glucose analyzer (Prestige from Chronolyss). […]

insulin
effect on glycemic response to oral glucose (in words) [1]: did not significantly change this result
effect on blood sugar (in words) [2]: did not significantly change the previous result
